Reference: US20250127759A1, “METHODS AND DOSING REGIMENS COMPRISING A CDK2 INHIBITOR FOR THE TREATMENT OF CANCER” (PFIZER INC., priority 2021, published 2025)
Values joined by “and” are separate entries in the source; they are usually repeats but may differ in a detail not shown here. Equal values may be shown once. Read-outs that look alike come from different tables or passages of the source.

Experiments:
[1] = Phase 1/2a study, safety profile; format: in vivo
Description: DLTs will be assessed through Cycle 1 (28-day cycle with Day 29 laboratory assessments). For the purpose of dose escalation, the DLT observation period will be during the first cycle (28 days after the start of study treatment) in each participant. Severity of AEs will be graded according to Common Terminology Criteria for Adverse Events (CTCAE) version 5.0.

[2] = Phase 1/2a study, plasma pharmacokinetics of PF-07104091; format: in vivo, human
Description: Blood samples will be collected for measurement of plasma concentrations of PF-07104091 as specified in the protocol. Samples will be used to evaluate the PK of PF-07104091. Samples collected for analyses of PF-07104091 plasma concentration may also be used to evaluate safety or efficacy aspects related to concerns arising during or after the study, for metabolite identification and/or evaluation of the bioanalytical method, or for other internal exploratory purposes.
Plasma PF-07104091 concentrations will be summarized descriptively (n, mean, standard deviation, coefficient of variation, median, minimum, maximum, geometric mean and its associated coefficient of variation) by dose, cycle, day and nominal time. Individual participant plasma PF-07104091 concentration-time data within a dose interval (with exception of the food effect substudy) after Cycle 1 Day 1 and Cycle 1 Day 15 will be analyzed using noncompartmental methods to determine single and multiple dose PK parameters. For participants in the food effect substudy, individual plasma PF-07104091 concentration-time data after Cycle 1 Day 15 and Cycle 1 Day 16 will be analyzed using noncompartmental methods to determine multiple dose PK parameters. For Part 1 of the study, single dose PK parameters to be estimated will include the Cmax, Tmax, and AUClast, and if data permit, t1/2, CL/F, and Vz/F. Multiple dose PK parameters to be estimated will include Cmax,ss, Tmax,ss, AUCT,ss, Cmin,ss, CL/F,ss, and if data permit, V/Fss, t1/2, and Rac. For Part 2 of the study (with exception of the food effect substudy), single dose PK parameters to be estimated will include Cmax, Tmax and AUClast. Multiple dose PK parameters to be estimated will include Cmax,ss, Tmax,ss, AUClast, Cmin,ss, and Rac. The single dose and steady state PK parameters will be summarized descriptively (n, mean, standard deviation, coefficient of variation, median, minimum, maximum, geometric mean and its associated coefficient of variation) by dose level, cycle and day. For participants in the food effect substudy, multiple dose PK parameters to be estimated will include Cmax,ss, AUCT,ss, Tmax,ss, Cmin,ss, CL/Fss, and if data permit, V/Fss and t1/2.
An ongoing Phase 1/2a, open-label, multicenter, multiple dose study is being conducted to determine the safety, tolerability, PK, PD, and preliminary anti-tumor activity of PF-07104091 as a single agent and in combination with endocrine therapy. PF-07104091 is administered orally twice daily (BID) during 28-day cycles.
Preliminary concentration-time data of PF-07104091 following single and multiple oral administration at 75 mg BID to 500 mg BID as monotherapy or in combination with endocrine therapy alone or in combination with palbociclib and endocrine therapy were available from 44 participants with advanced solid tumors and HR-positive HER2-negative advanced or metastatic breast cancer. The preliminary concentration-time data were analyzed by noncompartmental approach using actual PK sampling times.
[…] Individual values are listed when the number of participants with available parameters is less than 3.

[3] = 75 mg to 500 mg BID, all cohorts, as of data cutoff
[4] = Cycle 1 Day 1, single oral dose, 375 mg BID monotherapy, individual values
[5] = Cycle 1 Day 15, repeated BID oral, 75 mg BID monotherapy, individual values

COCc1cc(C(=O)Nc2cc([C@H]3CC[C@@H](OC(=O)NC(C)C)C3)[nH]n2)n(C)n1 [PF-07104091, (1R,3S)-3-[3-({[3-(methoxymethyl)-1-methyl-1H-pyrazol-5-yl]carbonyl}amino)-1H-pyrazol-5-yl]cyclopentyl propan-2-ylcarbamate]
DLTs related to PF-07104091 (number) [1, 3]: 15 | SAEs related to PF-07104091 (number) [1, 3]: 21 | deaths related to PF-07104091 [1, 3]: no deaths | patients with at least one all-causality TEAE ([1]; 70 out of 77 patients, across all doses): 90.9% | Grade 5 all-causality TEAEs (number) ([1]; Dyspnoea at the 225 mg BID (Part A) dose): One | Grade 3 or higher all-causality TEAE: anaemia ([1]; across all doses): 6.5% | Grade 3 or higher all-causality TEAE: fatigue ([1]; across all doses): 10.4% | Grade 3 or higher all-causality TEAE: hypokalaemia ([1]; across all doses): 5.2% | Grade 3 or higher all-causality TEAE: nausea ([1]; across all doses): 7.8% | Grade 3 or higher all-causality TEAE: neutrophil count decreased ([1]; across all doses): 23.4% | Grade 3 or higher all-causality TEAE: white blood cell count decreased ([1]; across all doses): 14.3% | all-causality TEAEs Grade 3 or higher ([1]; across all doses): 49.4% | all-causality TEAE: anaemia ([1]; across all doses, 77 patients): 31.2% | all-causality TEAE: decreased appetite ([1]; across all doses, 77 patients): 20.8% | all-causality TEAE: diarrhoea ([1]; across all doses, 77 patients): 37.7% | all-causality TEAE: fatigue ([1]; across all doses, 77 patients): 41.6% | all-causality TEAE: nausea ([1]; across all doses, 77 patients): 68.8% | all-causality TEAE: neutrophil count decreased ([1]; across all doses, 77 patients): 32.5% | all-causality TEAE: vomiting ([1]; across all doses, 77 patients): 37.7% | all-causality TEAE: white blood cell count decreased ([1]; across all doses, 77 patients): 23.4% | patients who discontinued study treatment due to AEs ([1]; all cohorts, as of data cutoff): 4 patients | Grade 4 all-causality TEAE (number) ([1]; neutrophil count decreased 500 mg BID (1A) and 75 mg BID (3/1) (1B), platelet count decreased 150 mg BID (1B), neutropenia 75 mg BID (1C)): Four | AUClast [2, 4]: 14424 ng·h/mL | Cmax [2, 4]: 2890 ng/mL | Tmax [2, 4]: 4.0, 4.0 h | Rac ([2]; Cycle 1 Day 15, repeated BID oral, 75 mg BID (1B), with palbociclib and fulvestrant, arithmetic mean ± SD): 1.2 ± 0.1 | AUClast [2, 5]: 2321, ng*h/mL | Cmax [2, 5]: 398, ng/mL | Rac [2, 5]: 1.4 and 2.7 | Rac ([2]; Cycle 1 Day 15, repeated BID oral, 150 mg BID monotherapy, arithmetic mean ± SD): 1.8 ± 0.2 | Rac ([2]; Cycle 1 Day 15, repeated BID oral, 225 mg BID monotherapy, arithmetic mean ± SD): 1.8 ± 0.7 | Rac ([2]; Cycle 1 Day 15, repeated BID oral, 300 mg BID monotherapy, arithmetic mean ± SD): 1.9 ± 1.1 | Rac ([2]; Cycle 1 Day 15, repeated BID oral, 500 mg BID monotherapy, individual value, N = 1): 1.1 | accumulation ([2]; following repeated BID administration): moderate accumulation | half-life ([2]; human, plasma, po, 75 mg BID to 500 mg BID, read-out: average half-life (converted)): ~2 h | half-life ([2]; human, plasma, po, 75 mg, Cycle 1 Day 1, single oral dose, 75 mg BID (1B), with palbociclib and fulvestrant, arithmetic mean ± SD, read-out: t1/2 (converted)): 1.9 ± 0.2 h | AUC(0-t) ([2]; human, plasma, po, 75 mg, Cycle 1 Day 1, single oral dose, 75 mg BID (1B), with palbociclib and fulvestrant, geometric mean (CV %)): 2760 ng·h/mL | Cmax ([2]; human, plasma, po, 75 mg, Cycle 1 Day 1, single oral dose, 75 mg BID (1B), with palbociclib and fulvestrant, geometric mean (CV %), read-out: Cmax): 694 ng/mL | Tmax ([2]; human, plasma, po, 75 mg, Cycle 1 Day 1, single oral dose, 75 mg BID (1B), with palbociclib and fulvestrant, median (range), read-out: Tmax): 1.6 h | half-life ([2]; human, plasma, po, 75 mg, Cycle 1 Day 1, single oral dose, 75 mg BID (1C), with palbociclib and letrozole, arithmetic mean ± SD, read-out: t1/2 (converted)): 1.6 ± 0.5 h | AUC(0-t) ([2]; human, plasma, po, 75 mg, Cycle 1 Day 1, single oral dose, 75 mg BID (1C), with palbociclib and letrozole, geometric mean (CV %)): 2460 ng·h/mL | Cmax ([2]; human, plasma, po, 75 mg, Cycle 1 Day 1, single oral dose, 75 mg BID (1C), with palbociclib and letrozole, geometric mean (CV %), read-out: Cmax): 648 ng/mL | Tmax ([2]; human, plasma, po, 75 mg, Cycle 1 Day 1, single oral dose, 75 mg BID (1C), with palbociclib and letrozole, median (range), read-out: Tmax): 0.5 h | half-life ([2]; human, plasma, po, 75 mg, Cycle 1 Day 1, single oral dose, 75 mg BID monotherapy, arithmetic mean ± SD, read-out: t1/2 (converted)): 2.4 ± 0.7 h
